Assay [1] addresses EGFR (UniProt P00533).
Assay [2] has as its target EGFR (UniProt P00533). This is another data set of the same source.

Sequence of EGFR (P00533 whole entry, looked up): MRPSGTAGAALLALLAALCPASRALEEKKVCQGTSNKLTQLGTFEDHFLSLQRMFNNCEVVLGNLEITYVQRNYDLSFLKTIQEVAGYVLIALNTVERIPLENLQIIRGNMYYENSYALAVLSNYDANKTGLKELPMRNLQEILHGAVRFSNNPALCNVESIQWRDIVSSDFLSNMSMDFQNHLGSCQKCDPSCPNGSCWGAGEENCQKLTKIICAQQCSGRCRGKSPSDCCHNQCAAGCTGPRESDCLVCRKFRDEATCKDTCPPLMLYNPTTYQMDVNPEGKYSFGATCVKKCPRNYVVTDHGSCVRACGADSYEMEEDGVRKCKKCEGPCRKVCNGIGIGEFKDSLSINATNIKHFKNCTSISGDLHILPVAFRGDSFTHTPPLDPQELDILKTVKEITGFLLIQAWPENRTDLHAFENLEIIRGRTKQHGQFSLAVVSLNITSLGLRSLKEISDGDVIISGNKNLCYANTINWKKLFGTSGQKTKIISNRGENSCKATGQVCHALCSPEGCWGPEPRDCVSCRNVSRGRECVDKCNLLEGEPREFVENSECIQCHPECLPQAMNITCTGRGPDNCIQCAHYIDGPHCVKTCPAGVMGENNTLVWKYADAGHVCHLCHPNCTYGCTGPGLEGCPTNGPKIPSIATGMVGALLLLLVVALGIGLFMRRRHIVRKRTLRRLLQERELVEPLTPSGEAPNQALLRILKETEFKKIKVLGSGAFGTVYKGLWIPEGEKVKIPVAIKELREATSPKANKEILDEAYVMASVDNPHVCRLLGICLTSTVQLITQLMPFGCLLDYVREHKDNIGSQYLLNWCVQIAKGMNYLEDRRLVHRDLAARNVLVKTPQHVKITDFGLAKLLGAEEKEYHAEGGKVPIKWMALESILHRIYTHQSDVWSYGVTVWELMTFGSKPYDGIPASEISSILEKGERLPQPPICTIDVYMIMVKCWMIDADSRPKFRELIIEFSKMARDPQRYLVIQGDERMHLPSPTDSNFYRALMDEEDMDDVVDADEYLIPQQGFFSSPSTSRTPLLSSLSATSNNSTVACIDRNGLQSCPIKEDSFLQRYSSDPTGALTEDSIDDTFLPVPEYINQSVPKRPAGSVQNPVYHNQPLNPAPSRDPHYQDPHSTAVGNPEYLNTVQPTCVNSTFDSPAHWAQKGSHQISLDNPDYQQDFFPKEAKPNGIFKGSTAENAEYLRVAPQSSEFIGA

Regarding `N#CC(C#N)=C(N)/C(C#N)=C/c1ccc(O)c(O)c1`, the IC50 against EGFR [1] came out at 1.8 µM. Same read-out and setting: the result for `COc1cc(C=C(C#N)C#N)cc(O)c1O` reads 20 µM.

On EGFR [2], `O=C(O)/C=C/c1cc(O)ccc1O` came in with an IC50 of 4.4 µM. `N#C/C(=C\c1ccc(O)c(O)c1)C(=O)O`: the IC50 against EGFR [1] worked out at 400 µM.

In the case of `N#CC(C#N)=Cc1cc(O)cc(O)c1`, on EGFR [2], the Ki turned out to be 10 µM. In addition, the IC50 at EGFR [1] amounted to 160 µM.

At EGFR [2], `N#C/C(=C\c1ccc([N+](=O)[O-])cc1)C(=O)O` registered a Ki of 1300 µM. The compound `N#CC(C#N)=Cc1cc(O)c(O)c(O)c1` registered a Ki at EGFR [2] of 1 µM. The IC50 against EGFR [1] is 15 µM. Compound `N#C/C(=C\c1ccc(O)c(O)c1)C(N)=O` showed an IC50 against EGFR [1] of 4 µM. Still for that read-out and setting: the result for `N#CC(C#N)=C(O)c1cc(O)c(O)c(O)c1` reads 35 µM.

(Values after the Kinase Knowledgebase extract (Sharma et al. 2016).)
